Source: patent publication US20250368678A1, “19-NOR-C3,3-DISUBSTITUTED C21-AZACYCLO-S[…] AND METHOD FOR USING SAME” (SHANDONG LUYE PHARMACEUTICAL CO., LTD., priority 2022, published 2025)
Like-named read-outs stand apart in the source and are kept apart here.

Assays:
[1] = Pharmacokinetic study in CD-1 mice (plasma and brain); format: in vivo
Experimental: Male CD-1 mice weighing about 25 g were randomly divided into groups of 3.
The intravenous (IV) dose was 1 mg/kg, and the intragastric (IG) dose was 5 mg/kg. Animals were fasted for 12 h before administration, with free access to water, and were fed together 3 h post-administration. Blood samples of about 0.15 mL were collected at 5 min (intravenous), 15 min, 30 min, 1 h, 2 h, 4 h, 8 h, 12 h, and 24 h post-administration into heparinized EP tubes and centrifuged at 13,500 rpm for 10 min to separate the plasma. Mouse brain tissue samples were collected after cardiac perfusion at 30 min, 2 h, and 8 h. After pretreatment, the samples were analyzed by LC-MS/MS to determine the concentration of the test compound in the plasma and brain, and pharmacokinetic parameters were calculated.

[2] = target: T1, α1β2γ2 GABA receptors (α1β2γ2-CHO-TRex stable cell strain) (Homo sapiens, UniProt P14867+P47870); assay: Whole-cell patch clamp, intrasynaptic functional activity (positive allosteric regulation of GABA-induced current); format: cell-based; conditions: patch clamp -60 mV, GABA at EC10-20, α1β2γ2-CHO-TRex cells
T1 construct: expressed in transfected cells
Method in brief: (§1)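 Tetracycline-induced stable lines were used: α4β3δ in HEK-FlpIn-TRex and α1β2γ2 in CHO-TRex. Whole-cell patch clamp was run at −60 mV with GABA at EC10-20 ([…]) and compound perfused for 30 s before GABA, with extracellular pH 7.4. Fold increase in GABA current over ≥5 concentrations on ≥3 cells gave EC50 and Emax by Hill fit.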

[3] = system: SD rats; assay: Loss of righting reflex in SD rats, intragastric administration; format: in vivo; conditions: for rate of loss of righting reflex: within 4 h
Source text: To determine the threshold for the loss of righting reflex in SD rats after intragastric administration of compound 41 in order to evaluate the sedative effect and therapeutic safety window of compound 41.
Male SD rats weighing 180-200 g, as experimental animals, were acclimatized for 7 days after arriving at the animal facility and were randomly divided into groups based on weight one day before experimentation. The rats were fasted overnight before experimentation but had access to water. Doses of compound 41 were designed in a 0.8-fold gradient, and the doses were set at 39 mg/kg, 31.25 mg/kg, 25 mg/kg, 20 mg/kg, and 16 mg/kg, with 10 rats in each group. Observations were made on the loss of righting reflex within 4 h of intragastrically administering the compound to the rats.

[4] = system: SD rats; assay: Loss of righting reflex in SD rats, intraperitoneal injection; format: in vivo; conditions: for rate of loss of righting reflex: within 4 h
Source text: To determine the threshold for the loss of righting reflex in SD rats after injection of compound 41 in order to evaluate the sedative effect and therapeutic safety window of the compound.
Male SD rats weighing 180-200 g, as test animals, were acclimatized for 7 days after arriving at the animal facility and were randomly divided into groups based on weight one day before testing. The rats were fasted for half a day before testing but had access to water. Doses of compound 41 were designed in a 0.8-fold gradient, and the doses were set at 23.5 mg/kg, 18.8 mg/kg, 15 mg/kg, 12 mg/kg, and 9.6 mg/kg. Observations were made on the loss of righting reflex within 4 h of intraperitoneally injecting compound 41 into the rats.

[5] = target: T2, α4β3δ GABA receptors (α4β3δ-HEK-FlpIn-TRex stable cell strain) (Homo sapiens, UniProt P28472+P48169); assay: Whole-cell patch clamp, extrasynaptic functional activity (positive allosteric regulation of GABA-induced current); format: cell-based; conditions: patch clamp -60 mV, GABA at EC10-20, α4β3δ-HEK-FlpIn-TRex cells
T2 construct: expressed in transfected cells
Method in brief: as §1

[6] = male, mouse, IV 1 mg/kg, plasma
[7] = male, mouse, plasma, IV 1 mg/kg
[8] = male, mouse, plasma, po, IG 5 mg/kg
[9] = male, mouse, po, IG 5 mg/kg, plasma

T2 sequence (P48169 36-554): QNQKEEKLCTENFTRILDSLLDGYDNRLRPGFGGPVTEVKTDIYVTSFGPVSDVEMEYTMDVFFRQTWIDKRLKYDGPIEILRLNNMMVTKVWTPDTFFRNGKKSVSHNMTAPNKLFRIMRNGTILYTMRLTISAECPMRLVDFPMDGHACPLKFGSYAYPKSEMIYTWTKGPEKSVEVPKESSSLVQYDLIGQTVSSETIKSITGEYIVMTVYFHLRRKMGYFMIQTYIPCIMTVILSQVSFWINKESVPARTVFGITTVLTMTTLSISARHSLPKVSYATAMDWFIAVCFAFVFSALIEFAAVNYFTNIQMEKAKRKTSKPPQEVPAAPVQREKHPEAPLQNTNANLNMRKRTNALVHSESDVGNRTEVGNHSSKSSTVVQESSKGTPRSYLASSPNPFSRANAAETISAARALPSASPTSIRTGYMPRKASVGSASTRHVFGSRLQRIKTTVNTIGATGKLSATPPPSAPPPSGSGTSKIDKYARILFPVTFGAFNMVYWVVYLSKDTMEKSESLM
T2 sequence (P28472 26-473): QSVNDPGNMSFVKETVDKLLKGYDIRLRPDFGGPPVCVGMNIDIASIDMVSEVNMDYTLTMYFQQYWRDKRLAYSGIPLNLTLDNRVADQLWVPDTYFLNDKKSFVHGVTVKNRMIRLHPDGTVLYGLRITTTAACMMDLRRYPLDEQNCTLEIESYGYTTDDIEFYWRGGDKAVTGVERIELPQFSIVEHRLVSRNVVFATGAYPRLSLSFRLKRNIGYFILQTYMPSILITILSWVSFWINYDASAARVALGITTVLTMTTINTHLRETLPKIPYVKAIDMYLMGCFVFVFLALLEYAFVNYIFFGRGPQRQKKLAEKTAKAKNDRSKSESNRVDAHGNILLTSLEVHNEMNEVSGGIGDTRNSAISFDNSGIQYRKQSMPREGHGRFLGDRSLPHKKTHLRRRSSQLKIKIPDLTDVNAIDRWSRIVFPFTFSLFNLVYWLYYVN
T2 sequence (O14764 25-452 partner): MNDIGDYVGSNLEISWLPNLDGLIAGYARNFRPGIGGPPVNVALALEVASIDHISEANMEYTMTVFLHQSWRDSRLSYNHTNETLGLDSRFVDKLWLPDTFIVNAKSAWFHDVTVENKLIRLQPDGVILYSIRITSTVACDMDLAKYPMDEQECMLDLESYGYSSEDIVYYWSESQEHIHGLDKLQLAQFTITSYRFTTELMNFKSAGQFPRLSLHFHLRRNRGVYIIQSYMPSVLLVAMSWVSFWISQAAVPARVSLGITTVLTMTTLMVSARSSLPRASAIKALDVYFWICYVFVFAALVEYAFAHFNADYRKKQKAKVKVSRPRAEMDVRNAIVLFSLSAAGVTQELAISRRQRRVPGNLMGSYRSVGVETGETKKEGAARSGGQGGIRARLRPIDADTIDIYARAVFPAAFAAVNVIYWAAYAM
T1 sequence (P14867 28-456): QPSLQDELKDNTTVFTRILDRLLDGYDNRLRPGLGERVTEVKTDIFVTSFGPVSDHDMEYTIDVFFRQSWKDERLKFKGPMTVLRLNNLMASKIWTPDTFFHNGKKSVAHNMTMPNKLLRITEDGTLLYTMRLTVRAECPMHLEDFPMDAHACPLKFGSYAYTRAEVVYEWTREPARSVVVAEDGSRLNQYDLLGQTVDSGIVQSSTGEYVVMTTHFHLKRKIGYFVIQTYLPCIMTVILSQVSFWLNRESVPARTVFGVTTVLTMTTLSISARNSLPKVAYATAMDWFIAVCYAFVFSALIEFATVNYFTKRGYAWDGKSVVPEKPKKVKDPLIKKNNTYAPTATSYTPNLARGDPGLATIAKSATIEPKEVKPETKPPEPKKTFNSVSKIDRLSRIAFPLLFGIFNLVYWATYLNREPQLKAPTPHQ
T1 sequence (P47870 25-512 limits assumed): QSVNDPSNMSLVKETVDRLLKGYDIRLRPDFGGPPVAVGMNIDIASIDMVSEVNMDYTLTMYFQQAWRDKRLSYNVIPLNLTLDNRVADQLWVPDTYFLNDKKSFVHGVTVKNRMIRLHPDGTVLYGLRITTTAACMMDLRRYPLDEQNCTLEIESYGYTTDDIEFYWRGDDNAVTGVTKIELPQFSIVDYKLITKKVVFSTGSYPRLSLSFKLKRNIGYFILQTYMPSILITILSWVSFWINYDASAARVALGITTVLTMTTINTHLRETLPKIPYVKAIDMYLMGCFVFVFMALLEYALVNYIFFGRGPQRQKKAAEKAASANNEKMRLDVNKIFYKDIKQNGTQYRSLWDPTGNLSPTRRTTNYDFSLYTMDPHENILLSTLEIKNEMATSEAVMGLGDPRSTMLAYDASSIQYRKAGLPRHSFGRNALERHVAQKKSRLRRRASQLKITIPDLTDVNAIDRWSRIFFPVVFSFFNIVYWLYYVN
T1 sequence (P18507 40-475 partner): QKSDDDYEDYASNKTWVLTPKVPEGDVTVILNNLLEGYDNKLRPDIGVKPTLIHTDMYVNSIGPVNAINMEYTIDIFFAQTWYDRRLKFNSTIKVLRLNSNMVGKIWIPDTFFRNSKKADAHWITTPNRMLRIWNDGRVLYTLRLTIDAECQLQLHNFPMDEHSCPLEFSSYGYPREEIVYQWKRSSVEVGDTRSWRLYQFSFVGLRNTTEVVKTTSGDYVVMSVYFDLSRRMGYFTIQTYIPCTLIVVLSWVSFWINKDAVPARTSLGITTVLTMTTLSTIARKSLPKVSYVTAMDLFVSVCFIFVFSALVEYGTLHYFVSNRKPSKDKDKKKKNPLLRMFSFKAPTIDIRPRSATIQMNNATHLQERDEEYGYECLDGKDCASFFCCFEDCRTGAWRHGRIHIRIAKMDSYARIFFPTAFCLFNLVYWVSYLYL

With `C[C@@]1(O)CC[C@H]2[C@H](CC[C@@H]3[C@@H]2CC[C@]2(C)[C@@H](C(=O)Cn4cnn(-c5cc(F)nc(F)c5)c4=O)CC[C@@H]32)C1` [Compound 41] as the molecule, how does the “brain penetration capability (in words)” value ([1]; IG 5 mg/kg) read?
The value was “strong”.

What about the AUC(0-inf) [1, 6] of the same molecule?
Its AUC(0-inf) is 4320 ng·h/mL.

What about the AUC(0-t) [1, 6] of the same molecule?
The AUC(0-t) was 3660 ng·h/mL.

What about the C0 [1, 6] of the same molecule?
Its C0 is 490 ng/mL.

And the concentration at 30 min ([1]; male, mouse, brain, oral, IG 5 mg/kg, 30 min, read-out: Brain concentration)?
Its concentration at 30 min is 847 ± 36 ng/g.

And the concentration at 2 h ([1]; male, mouse, brain, oral, IG 5 mg/kg, 2 h, read-out: Brain concentration)?
The concentration at 2 h was 1920 ± 978 ng/g.

What about the concentration at 8 h ([1]; male, mouse, brain, oral, IG 5 mg/kg, 8 h, read-out: Brain concentration) of the same molecule?
Its concentration at 8 h is 1590 ± 233 ng/g.

And the Kp at 30 min ([1]; male, mouse, brain/plasma, oral, IG 5 mg/kg, 30 min, read-out: Brain-to-blood ratio)?
The Kp at 30 min was 0.9.

What about the Kp at 2 h ([1]; male, mouse, brain/plasma, oral, IG 5 mg/kg, 2 h, read-out: Brain-to-blood ratio) of the same molecule?
The Kp at 2 h was 1.5.

And the Kp at 8 h ([1]; male, mouse, brain/plasma, oral, IG 5 mg/kg, 8 h, read-out: Brain-to-blood ratio)?
The Kp at 8 h was 1.8.

And the MRT last [1, 7]?
The MRT last was 7.9 h.

What about the half-life [1, 7] of the same molecule?
The half-life was 9 h.

And the bioavailability ([1]; male, mouse, plasma, oral, IG 5 mg/kg vs IV 1 mg/kg, read-out: F (absolute bioavailability))?
Its bioavailability is 109%.

What about the concentration at 30 min ([1]; male, mouse, plasma, oral, IG 5 mg/kg, 30 min, read-out: Plasma concentration) of the same molecule?
Its concentration at 30 min is 936 ± 119 ng/mL.

And the concentration at 2 h ([1]; male, mouse, plasma, oral, IG 5 mg/kg, 2 h, read-out: Plasma concentration)?
The concentration at 2 h was 1280 ± 345 ng/mL.

And the concentration at 8 h ([1]; male, mouse, plasma, oral, IG 5 mg/kg, 8 h, read-out: Plasma concentration)?
Its concentration at 8 h is 891 ± 72 ng/mL.

What about the MRT last [1, 8] of the same molecule?
The MRT last was 9.8 h.

What about the Tmax [1, 8] of the same molecule?
Its Tmax is 1 h.

And the half-life [1, 8]?
Its half-life is 16.5 h.

What about the AUC(0-inf) [1, 9] of the same molecule?
Its AUC(0-inf) is 31300 ng·h/mL.

What about the AUC(0-t) [1, 9] of the same molecule?
The AUC(0-t) was 20000 ng·h/mL.

And the Cmax [1, 9]?
Its Cmax is 1670 ng/mL.

And the EC50 [2]?
The EC50 was 145 nM.

And the Emax [2]?
Its Emax is 762%.

What about the “rate of loss of righting reflex” value ([3]; 16 mg/kg intragastric, SD rats) of the same molecule?
Its value is 0%.

What about the “rate of loss of righting reflex” value ([3]; 20 mg/kg intragastric, SD rats) of the same molecule?
The value was 0%.

What about the “rate of loss of righting reflex” value ([3]; 25 mg/kg intragastric, SD rats) of the same molecule?
The value was 50%.

And the “rate of loss of righting reflex” value ([3]; 31.25 mg/kg intragastric, SD rats)?
Its value is 90%.

And the “rate of loss of righting reflex” value ([3]; 39 mg/kg intragastric, SD rats)?
Its value is 100%.

And the “threshold for loss of righting reflex relative to effective dose for the antiepileptic convulsion effect” value ([3]; intragastric, 20 mg/kg vs 3.5 mg/kg, rats)?
Its value is 5.7 times.

And the “therapeutic safety window (in words)” value ([3]; intragastric, SD rats)?
Its value is “relatively wide”.

And the “threshold dose for the loss of righting reflex” value ([3]; intragastrically administered, SD rats)?
The value was 20 mg/kg.

And the “rate of loss of righting reflex” value ([4]; 9.6 mg/kg intraperitoneal)?
The value was 0.

What about the “rate of loss of righting reflex” value ([4]; 12 mg/kg intraperitoneal) of the same molecule?
Its value is 0.

What about the “rate of loss of righting reflex” value ([4]; 15 mg/kg intraperitoneal) of the same molecule?
The value was 30%.

What about the “rate of loss of righting reflex” value ([4]; 18.8 mg/kg intraperitoneal) of the same molecule?
The value was 50%.

What about the “rate of loss of righting reflex” value ([4]; 23.5 mg/kg intraperitoneal) of the same molecule?
Its value is 80%.

What about the “therapeutic safety window (in words)” value ([4]; intraperitoneal) of the same molecule?
The value was “relatively wide”.

And the “threshold dose for the loss of righting reflex” value ([4]; intraperitoneally injected)?
The value was 12 mg/kg.

What about the EC50 [5] of the same molecule?
Its EC50 is 67 nM.

And the Emax [5]?
The Emax was 754%.
